Compound in one test: O=[As]([O-])(O)O.[K+] [potassium arsenate]
In words: thermal stability z-score vs DMSO; higher = more thermally stabilized by treatment. Particulars: HeLa; arsenate concentration 1 mM. On the procedure: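 Cellular thermal proteome profiling in HeLa cells treated with 1 mM arsenate for 1 h (DMSO pretreatment), heated to ten temperatures (37-66.3 °C). Soluble protein was quantified by TMT mass spectrometry relative to DMSO controls; the thermal stability score was transformed to a z-score; mean of n = 3 experiments.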

Compound in another test: NC(=O)CCCCC1CCSS1 [lipoamide]
Described as above. Particulars: HeLa, lipoamide concentration 100 µM. On the procedure: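 Cellular thermal proteome profiling in HeLa cells. Cells were treated with 100 µM lipoamide for 1 h, with or without 1 mM arsenate for a further 1 h, then heated to ten temperatures (37-66.3 °C), and soluble protein was quantified by TMT mass spectrometry relative to 0.1% DMSO controls. The thermal stability score (sum of log2 fold changes minus the abundance score) was transformed to a z-score; mean of n = 3 experiments.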

[1] abbreviates: arsenate co-treatment: 1 mM arsenate 1 h.
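Further: each temperature applied for 3 min, abundance score taken as mean log2 fold change at the two lowest temperatures, z-score obtained by mean subtraction and division by SD.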

Sequence of UniProt P46934 (P46934 whole entry): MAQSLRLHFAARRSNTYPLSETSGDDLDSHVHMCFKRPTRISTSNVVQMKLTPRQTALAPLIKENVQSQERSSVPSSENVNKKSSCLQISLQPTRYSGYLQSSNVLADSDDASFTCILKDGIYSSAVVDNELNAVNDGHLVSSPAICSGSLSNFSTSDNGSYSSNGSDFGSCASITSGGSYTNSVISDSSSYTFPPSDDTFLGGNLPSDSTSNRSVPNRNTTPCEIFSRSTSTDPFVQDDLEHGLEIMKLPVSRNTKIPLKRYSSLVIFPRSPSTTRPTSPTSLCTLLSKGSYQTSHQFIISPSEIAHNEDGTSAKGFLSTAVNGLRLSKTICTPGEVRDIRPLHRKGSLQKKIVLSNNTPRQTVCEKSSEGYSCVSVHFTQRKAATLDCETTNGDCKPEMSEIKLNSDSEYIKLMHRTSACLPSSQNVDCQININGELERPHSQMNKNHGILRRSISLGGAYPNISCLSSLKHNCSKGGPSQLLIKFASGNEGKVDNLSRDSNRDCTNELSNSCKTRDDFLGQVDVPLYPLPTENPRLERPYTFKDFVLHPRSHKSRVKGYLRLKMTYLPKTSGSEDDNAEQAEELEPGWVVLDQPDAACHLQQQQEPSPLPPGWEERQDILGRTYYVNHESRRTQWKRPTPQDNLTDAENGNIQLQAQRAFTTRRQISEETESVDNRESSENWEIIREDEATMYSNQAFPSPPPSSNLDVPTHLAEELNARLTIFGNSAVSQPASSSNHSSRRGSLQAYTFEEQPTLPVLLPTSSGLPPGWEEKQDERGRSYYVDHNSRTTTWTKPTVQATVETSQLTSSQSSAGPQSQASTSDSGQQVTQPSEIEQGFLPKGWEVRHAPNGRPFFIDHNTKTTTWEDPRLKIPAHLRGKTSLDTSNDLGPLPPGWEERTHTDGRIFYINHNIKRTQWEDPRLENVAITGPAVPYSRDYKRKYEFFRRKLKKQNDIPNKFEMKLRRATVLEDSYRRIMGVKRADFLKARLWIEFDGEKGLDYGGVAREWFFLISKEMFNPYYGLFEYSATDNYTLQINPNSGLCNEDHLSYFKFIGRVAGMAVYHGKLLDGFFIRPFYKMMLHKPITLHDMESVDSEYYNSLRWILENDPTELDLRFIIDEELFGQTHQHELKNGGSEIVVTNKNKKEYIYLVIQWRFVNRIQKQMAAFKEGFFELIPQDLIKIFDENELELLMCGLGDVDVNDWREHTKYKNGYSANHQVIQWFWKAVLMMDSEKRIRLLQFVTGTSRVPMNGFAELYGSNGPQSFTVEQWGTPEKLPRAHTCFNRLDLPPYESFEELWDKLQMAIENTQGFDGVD
Sequence of UniProt Q8NHV4 (Q8NHV4 whole entry): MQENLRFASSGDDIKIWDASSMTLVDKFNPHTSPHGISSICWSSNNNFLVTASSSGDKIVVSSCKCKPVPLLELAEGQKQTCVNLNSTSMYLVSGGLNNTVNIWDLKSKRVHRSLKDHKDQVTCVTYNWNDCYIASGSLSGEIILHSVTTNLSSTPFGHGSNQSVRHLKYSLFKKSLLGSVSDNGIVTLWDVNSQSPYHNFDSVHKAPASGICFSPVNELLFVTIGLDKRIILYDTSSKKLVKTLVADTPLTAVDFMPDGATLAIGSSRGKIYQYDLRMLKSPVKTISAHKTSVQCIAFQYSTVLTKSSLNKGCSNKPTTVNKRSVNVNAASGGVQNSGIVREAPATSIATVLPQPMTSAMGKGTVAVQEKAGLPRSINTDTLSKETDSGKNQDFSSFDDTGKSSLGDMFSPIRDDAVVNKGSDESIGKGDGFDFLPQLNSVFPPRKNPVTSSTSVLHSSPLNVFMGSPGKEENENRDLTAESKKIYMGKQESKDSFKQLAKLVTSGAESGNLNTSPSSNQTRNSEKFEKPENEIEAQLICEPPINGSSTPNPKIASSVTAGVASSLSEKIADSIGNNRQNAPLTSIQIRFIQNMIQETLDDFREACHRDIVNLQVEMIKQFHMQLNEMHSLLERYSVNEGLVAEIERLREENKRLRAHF
Sequence of UniProt P49821 (P49821 whole entry): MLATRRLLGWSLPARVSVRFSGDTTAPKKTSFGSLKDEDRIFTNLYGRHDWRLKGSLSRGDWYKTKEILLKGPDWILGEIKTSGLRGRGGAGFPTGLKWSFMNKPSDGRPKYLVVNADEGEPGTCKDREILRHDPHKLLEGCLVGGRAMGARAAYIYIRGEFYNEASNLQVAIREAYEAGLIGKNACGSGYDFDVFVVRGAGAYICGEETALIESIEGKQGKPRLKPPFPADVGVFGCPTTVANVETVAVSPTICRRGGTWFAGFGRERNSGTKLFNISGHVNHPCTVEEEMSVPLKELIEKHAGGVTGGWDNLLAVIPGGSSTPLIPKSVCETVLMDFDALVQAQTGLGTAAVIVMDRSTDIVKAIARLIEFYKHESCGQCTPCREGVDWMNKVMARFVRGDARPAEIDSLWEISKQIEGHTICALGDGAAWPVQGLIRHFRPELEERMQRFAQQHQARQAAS
Sequence of UniProt Q92692 (Q92692 whole entry): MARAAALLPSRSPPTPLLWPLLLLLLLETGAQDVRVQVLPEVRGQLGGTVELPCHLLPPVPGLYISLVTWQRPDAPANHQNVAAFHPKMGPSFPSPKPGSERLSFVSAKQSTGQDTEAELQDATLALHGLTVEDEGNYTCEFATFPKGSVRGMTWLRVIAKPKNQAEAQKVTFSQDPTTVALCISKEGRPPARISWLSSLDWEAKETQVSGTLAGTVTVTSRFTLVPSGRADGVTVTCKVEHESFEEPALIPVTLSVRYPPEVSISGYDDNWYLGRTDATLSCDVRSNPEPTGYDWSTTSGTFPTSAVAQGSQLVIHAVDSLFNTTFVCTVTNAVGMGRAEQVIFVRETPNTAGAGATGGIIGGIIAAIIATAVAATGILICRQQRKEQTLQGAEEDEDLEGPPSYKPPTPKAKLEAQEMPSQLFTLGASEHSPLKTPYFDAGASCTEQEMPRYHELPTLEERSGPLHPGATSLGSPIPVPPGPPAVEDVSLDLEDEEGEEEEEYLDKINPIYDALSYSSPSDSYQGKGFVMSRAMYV
Sequence of UniProt O00217 (O00217 whole entry): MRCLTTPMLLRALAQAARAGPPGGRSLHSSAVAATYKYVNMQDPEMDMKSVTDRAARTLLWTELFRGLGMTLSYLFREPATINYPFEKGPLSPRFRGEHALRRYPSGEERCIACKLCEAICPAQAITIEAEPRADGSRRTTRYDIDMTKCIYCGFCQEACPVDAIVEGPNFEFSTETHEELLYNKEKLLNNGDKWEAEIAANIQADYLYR
Sequence of UniProt P19404 (P19404 whole entry): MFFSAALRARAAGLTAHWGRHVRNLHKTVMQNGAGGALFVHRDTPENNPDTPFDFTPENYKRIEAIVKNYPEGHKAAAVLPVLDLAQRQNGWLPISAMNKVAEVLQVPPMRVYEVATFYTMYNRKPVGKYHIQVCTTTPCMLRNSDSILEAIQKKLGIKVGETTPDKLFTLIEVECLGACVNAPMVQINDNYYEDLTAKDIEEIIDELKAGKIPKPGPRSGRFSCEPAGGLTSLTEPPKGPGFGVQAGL
Sequence of UniProt Q9NX14 (Q9NX14 whole entry): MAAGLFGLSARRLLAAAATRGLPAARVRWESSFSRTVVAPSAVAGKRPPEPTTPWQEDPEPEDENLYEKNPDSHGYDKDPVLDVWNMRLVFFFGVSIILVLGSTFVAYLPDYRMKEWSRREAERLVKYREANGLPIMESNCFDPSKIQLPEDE
Sequence of UniProt O75306 (O75306 whole entry): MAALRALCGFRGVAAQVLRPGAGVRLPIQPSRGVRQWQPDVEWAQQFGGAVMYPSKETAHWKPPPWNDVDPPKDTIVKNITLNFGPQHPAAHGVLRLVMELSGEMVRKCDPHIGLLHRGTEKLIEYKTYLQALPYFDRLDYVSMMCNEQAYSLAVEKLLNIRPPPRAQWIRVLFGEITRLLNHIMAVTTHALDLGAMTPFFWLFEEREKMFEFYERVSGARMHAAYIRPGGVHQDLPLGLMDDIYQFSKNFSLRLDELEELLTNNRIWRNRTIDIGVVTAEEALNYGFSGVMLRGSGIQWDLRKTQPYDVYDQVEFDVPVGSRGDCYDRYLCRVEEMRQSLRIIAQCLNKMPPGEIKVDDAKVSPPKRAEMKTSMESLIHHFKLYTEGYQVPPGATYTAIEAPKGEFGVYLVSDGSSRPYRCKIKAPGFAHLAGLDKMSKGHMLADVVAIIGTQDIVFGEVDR
Sequence of UniProt O75251 (O75251 whole entry): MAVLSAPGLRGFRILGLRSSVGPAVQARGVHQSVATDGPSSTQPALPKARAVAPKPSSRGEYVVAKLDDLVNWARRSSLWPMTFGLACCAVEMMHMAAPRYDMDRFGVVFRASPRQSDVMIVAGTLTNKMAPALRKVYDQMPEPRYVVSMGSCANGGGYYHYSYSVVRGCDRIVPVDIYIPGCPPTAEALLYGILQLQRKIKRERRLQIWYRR
Sequence of UniProt P28331 (P28331 whole entry): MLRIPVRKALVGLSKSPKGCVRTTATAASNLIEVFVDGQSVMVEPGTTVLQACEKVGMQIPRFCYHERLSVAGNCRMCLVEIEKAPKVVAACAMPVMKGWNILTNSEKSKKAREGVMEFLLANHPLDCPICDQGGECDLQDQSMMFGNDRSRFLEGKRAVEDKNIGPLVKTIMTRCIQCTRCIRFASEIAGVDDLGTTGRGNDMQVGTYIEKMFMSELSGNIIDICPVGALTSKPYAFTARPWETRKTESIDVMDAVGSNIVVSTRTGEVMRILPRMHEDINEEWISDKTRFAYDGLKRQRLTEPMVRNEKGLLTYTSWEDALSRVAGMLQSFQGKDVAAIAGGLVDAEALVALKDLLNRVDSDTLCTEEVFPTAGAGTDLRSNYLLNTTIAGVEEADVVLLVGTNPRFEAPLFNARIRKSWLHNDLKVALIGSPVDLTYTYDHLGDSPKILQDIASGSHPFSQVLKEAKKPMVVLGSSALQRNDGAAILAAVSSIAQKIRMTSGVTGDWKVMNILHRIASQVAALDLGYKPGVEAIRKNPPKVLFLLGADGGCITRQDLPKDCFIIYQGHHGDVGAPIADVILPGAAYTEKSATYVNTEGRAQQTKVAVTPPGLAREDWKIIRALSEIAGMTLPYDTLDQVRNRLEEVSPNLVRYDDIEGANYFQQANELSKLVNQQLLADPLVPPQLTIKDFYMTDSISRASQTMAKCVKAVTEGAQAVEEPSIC

Regarding NDUFB8 (UniProt O95169), the thermal stability z-score with potassium arsenate is 0.119; in the test with lipoamide (setting [1]), 0.714; with lipoamide (arsenate co-treatment: none), 1.42.
On to NDUFB9 (UniProt Q9Y6M9), for which the thermal stability z-score was -0.937 with potassium arsenate, 0.158 with lipoamide (setting [1]) and -0.175 in the test with lipoamide (arsenate co-treatment: none).
In the case of NDUFB10 (UniProt O96000), the thermal stability z-score was 0.18 in the test with potassium arsenate, -0.509 in the test with lipoamide (setting [1]) and -0.759 with lipoamide (arsenate co-treatment: none).
For NDUFB11 (UniProt Q9NX14), the thermal stability z-score with potassium arsenate came to 0.94; with lipoamide (setting [1]), 0.566; in the test with lipoamide (arsenate co-treatment: none), 0.514.
In the case of NDUFC2 (UniProt O95298), the thermal stability z-score in the test with potassium arsenate turned out to be 2.15; with lipoamide (setting [1]), 1.34; in the test with lipoamide (arsenate co-treatment: none), 0.996.
With NDUFS1 (UniProt P28331), the thermal stability z-score was determined as 0.842 with potassium arsenate, 0.106 with lipoamide (setting [1]) and 0.134 with lipoamide (arsenate co-treatment: none).
On to NDUFS2 (UniProt O75306), for which the thermal stability z-score with potassium arsenate was -0.577; with lipoamide (setting [1]), -0.481; in the test with lipoamide (arsenate co-treatment: none), -0.617.
On to NDUFS3 (UniProt O75489), for which the thermal stability z-score in the test with potassium arsenate was -0.466; with lipoamide (setting [1]) it was -0.384; with lipoamide (arsenate co-treatment: none), 0.139.
As to NDUFS4 (UniProt O43181), the thermal stability z-score with potassium arsenate came out at 0.201; with lipoamide (setting [1]) it was 0.511; in the test with lipoamide (arsenate co-treatment: none), 0.477.
As to NDUFS5 (UniProt O43920), the thermal stability z-score with potassium arsenate was 0.133; in the test with lipoamide (setting [1]), -0.473; with lipoamide (arsenate co-treatment: none), -0.963.
For the target NDUFS6 (UniProt O75380), the thermal stability z-score with potassium arsenate was -0.244; in the test with lipoamide (setting [1]), -0.253; with lipoamide (arsenate co-treatment: none) it was 0.123.
On to NDUFS7 (UniProt O75251), for which the thermal stability z-score amounted to 0.149 with potassium arsenate, 0.142 with lipoamide (setting [1]) and 0.157 with lipoamide (arsenate co-treatment: none).
The like results for NDUFS8 (UniProt O00217) were, in that order, -0.279, -0.474 and -0.512.
In the case of NDUFV1 (UniProt P49821), the thermal stability z-score came out at 0.585 with potassium arsenate, 0.281 with lipoamide (setting [1]) and 0.0892 with lipoamide (arsenate co-treatment: none).
With NDUFV2 (UniProt P19404), the thermal stability z-score with potassium arsenate was 0.966; with lipoamide (setting [1]), 0.418; with lipoamide (arsenate co-treatment: none) it was -0.0827.
On to NDUFV3 (UniProt P56181), for which the thermal stability z-score is -0.157 in the test with potassium arsenate, 0.238 in the test with lipoamide (setting [1]) and 0.504 with lipoamide (arsenate co-treatment: none).
The corresponding values for NECAP1 (UniProt Q8NC96) are -0.194, 0.133 and 0.451.
The corresponding values for NECAP2 (UniProt Q9NVZ3) are -0.238, 0.16 and -0.169.
As for NECTIN2 (UniProt Q92692), the figures for the thermal stability z-score with potassium arsenate, with lipoamide (setting [1]) and in the test with lipoamide (arsenate co-treatment: none) were 0.0945, 0.434 and 0.196, respectively.
Take NECTIN3 (UniProt Q9NQS3): the thermal stability z-score with potassium arsenate is 0.432; with lipoamide (setting [1]), -0.126; with lipoamide (arsenate co-treatment: none), -0.303.
Turning to NEDD1 (UniProt Q8NHV4), the results for the thermal stability z-score in the test with potassium arsenate, with lipoamide (setting [1]) and with lipoamide (arsenate co-treatment: none) were 0.216, 0.124 and 0.153, respectively.
NEDD4 (UniProt P46934): the thermal stability z-score with potassium arsenate was -0.128; in the test with lipoamide (setting [1]), 0.296; with lipoamide (arsenate co-treatment: none) it was 0.196.
Take NEDD4L (UniProt Q96PU5): the thermal stability z-score is 0.0653 in the test with potassium arsenate, -0.314 in the test with lipoamide (setting [1]) and -0.354 in the test with lipoamide (arsenate co-treatment: none).

These data come from the supplement of paper PMC12463676, “Small-molecule dissolution of stress granules by redox modulation benefits ALS models” (Nature Chemical Biology, 2025).
